Measurements as given in patent US20250049791A1, “Synthesis of MEK7 Inhibitors and methods of Use Thereof” (Northwestern University, priority 2023, published 2025).
“Also recorded” adds a separate entry of the source.

Key:
[1] = test system: JNK1/2/3; assay: ScanEDGE competition binding, JNK1/2/3; conditions: ScanEDGE screen
Excerpt: (§1) The ScanEDGE assay, completed by DiscoverX (Eurofins) is a proprietary active site-directed competition binding assay. Compounds that bind the kinase active site prevent kinase binding to the immobilized ligand, reducing the amount of kinase captured on the solid support. Hits are identified by measuring the amount of kinase captured in experimental vs, control samples by a qPCR method that detects an associated DNA label. According to data provided by Eurofins, a typical hit at 5-10% of control signal in a 1 μM assay as shown above is generally associated with a KD in the range of 100-1,000 nM. Readings with greater than 35% of control signal correspond to exceeding large dissociation constants.

[2] = molecular target: T1, EGFR (L858R) mutant (Homo sapiens, UniProt P00533, L858R); assay: ScanEDGE competition binding, EGFR (L858R); design: dose or concentration left out as unconfirmed
T1 construct: purchased DiscoverX (Eurofins)
Excerpt: as §1

[3] = molecular target: T2, MEK6 (Homo sapiens, UniProt P52564); assay: Additional selectivity assay, MEK6 (FIG. 9); assay type: binding
T2 sequence (P52564 1-334): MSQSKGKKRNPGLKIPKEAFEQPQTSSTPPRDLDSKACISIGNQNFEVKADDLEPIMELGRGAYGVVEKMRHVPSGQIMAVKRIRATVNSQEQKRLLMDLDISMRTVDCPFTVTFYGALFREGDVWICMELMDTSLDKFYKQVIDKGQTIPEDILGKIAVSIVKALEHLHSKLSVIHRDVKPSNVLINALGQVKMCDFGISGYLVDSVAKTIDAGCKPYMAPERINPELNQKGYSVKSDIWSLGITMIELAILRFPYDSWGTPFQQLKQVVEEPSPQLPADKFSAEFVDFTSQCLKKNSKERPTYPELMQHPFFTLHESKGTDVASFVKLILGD

[4] = test system: 90 wildtype kinases; assay: ScanEDGE 97-kinase selectivity screen (DiscoverX/Eurofins), panel and S-score; assay type: binding
Excerpt: as §1
Selectivity score (or S-score) is a quantitative measure of compound selectivity corresponding to the ratio of hits to the number of screened wildtype kinases.

[5] = molecular target: T3, MEK5 (Homo sapiens, UniProt Q13163); assay: Additional selectivity assay, MEK5 (FIG. 9); assay type: binding
T3 sequence (Q13163 1-448): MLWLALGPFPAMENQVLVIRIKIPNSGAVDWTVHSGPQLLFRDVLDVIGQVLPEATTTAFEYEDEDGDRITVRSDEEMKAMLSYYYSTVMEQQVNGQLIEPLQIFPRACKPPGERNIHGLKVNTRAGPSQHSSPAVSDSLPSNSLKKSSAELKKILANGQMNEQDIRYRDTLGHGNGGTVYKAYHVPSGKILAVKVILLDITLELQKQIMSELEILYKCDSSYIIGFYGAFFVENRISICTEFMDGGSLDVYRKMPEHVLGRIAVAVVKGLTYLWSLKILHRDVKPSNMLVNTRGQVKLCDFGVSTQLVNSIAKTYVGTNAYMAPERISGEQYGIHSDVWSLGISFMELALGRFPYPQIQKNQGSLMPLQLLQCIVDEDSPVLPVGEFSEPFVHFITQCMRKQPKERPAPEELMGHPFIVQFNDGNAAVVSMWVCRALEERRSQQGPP

T1 sequence (P00533 25-1210 L858R): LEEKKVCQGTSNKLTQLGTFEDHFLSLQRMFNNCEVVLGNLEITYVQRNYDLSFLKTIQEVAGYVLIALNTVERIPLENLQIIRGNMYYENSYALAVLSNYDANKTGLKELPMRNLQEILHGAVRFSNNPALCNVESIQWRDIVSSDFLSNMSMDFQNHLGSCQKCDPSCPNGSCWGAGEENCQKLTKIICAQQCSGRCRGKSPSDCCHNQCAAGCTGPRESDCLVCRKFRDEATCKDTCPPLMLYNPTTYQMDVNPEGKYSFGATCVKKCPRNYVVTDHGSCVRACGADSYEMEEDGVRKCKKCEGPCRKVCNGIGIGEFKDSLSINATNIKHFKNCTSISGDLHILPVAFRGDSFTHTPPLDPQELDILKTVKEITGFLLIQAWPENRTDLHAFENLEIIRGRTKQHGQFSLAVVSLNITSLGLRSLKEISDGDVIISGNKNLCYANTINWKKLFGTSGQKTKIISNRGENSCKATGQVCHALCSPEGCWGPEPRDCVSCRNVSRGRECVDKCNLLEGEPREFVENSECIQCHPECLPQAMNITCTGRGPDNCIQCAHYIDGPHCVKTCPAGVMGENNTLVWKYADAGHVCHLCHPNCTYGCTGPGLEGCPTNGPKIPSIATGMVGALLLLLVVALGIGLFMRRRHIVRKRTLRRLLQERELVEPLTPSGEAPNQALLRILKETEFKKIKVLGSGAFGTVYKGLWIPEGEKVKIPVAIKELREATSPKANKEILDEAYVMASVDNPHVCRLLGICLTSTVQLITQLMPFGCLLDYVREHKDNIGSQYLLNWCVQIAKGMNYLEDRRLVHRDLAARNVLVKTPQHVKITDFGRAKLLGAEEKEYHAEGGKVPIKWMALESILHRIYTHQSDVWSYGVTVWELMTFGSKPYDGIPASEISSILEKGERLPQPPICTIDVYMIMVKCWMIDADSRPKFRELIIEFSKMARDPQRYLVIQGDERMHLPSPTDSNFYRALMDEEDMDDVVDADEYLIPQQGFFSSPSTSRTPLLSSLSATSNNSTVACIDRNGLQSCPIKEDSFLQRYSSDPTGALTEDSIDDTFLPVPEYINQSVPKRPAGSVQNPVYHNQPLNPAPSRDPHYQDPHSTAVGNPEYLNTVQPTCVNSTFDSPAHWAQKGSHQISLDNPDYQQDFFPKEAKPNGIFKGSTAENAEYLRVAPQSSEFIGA

`O=C(CCl)Nc1cccc(Oc2cc(NCc3ccccc3)ncn2)c1` [Compound 25, N-(3-((6-(benzylamino)pyrimidin-4-yl)oxy)phenyl)-2-chloroacetamide] was tested, and the “activity on JNK1/2/3” value [1] was “no appreciable activity”, the “binding to EGFR (L858R) mutant” value [2] was “interacted significantly” and the “activity/binding at MEK6” value [3] was “inactive; also recorded: lack of binding”. The “Number of Hits, S(1)” value ([4]; 1000 nM, 90 non-mutant kinases) was 0, the “Number of Hits, S(10)” value ([4]; 1000 nM, 90 non-mutant kinases) was 1 and the “Number of Hits, S(35)” value ([4]; 1000 nM, 90 non-mutant kinases) was 1. For the same compound, the “Selectivity Score S(10)” value ([4]; 1000 nM, 90 non-mutant kinases) was 0.011, the “Selectivity Score S(35)” value ([4]; 1000 nM, 90 non-mutant kinases) was 0.011 and the “selectivity score after adding MEK3, MEK5 and MEK6 (1/93)” value ([4]; 93 kinases) was 0.011. The “activity/binding at MEK5” value [5] was “inactive; also recorded: lack of binding”.
